Columns and labels:
[1] = Interconversion of form II to form I in stirred suspension, crystal form determined using XRPD; format: physicochemical
Method: Samples after being powdered in a mortar and pestle are applied directly on silicon plate holder. The X-ray powder diffraction pattern was measured with Philips X'Pert PRO X-ray powder diffractometer, equipped with Cu irradiation source=1.54060 ? ( ? ngstrom), X'C.elerator (2.022° 2Θ) detector. Scanning parameters: angle range: 3-40 deg., step size 0.0167, time per step 100 s, continuous scan. The accuracy of peak positions was defined as ±0.2 degrees due to experimental differences like instrumentations and sample preparations.
(§1) 27.0 g of Lacosamide was dissolved in 300 ml of ethyl acetate. Solution crystallized by cooling at about 42° C. Suspension was cooled to 40° C. and samples were taken in time intervals, filtered and crystal form was determined using XRPD. […] Crystals were filtered, washed with ethyl acetate and dried at 50° C./vacuo yielding 20.0 g Lacosamide form I.
as §1, with “30.0” for “27.0”, “239” for “300”, “acetate and 1 ml of water.” for “acetate.”, “46°” for “42°”, “with cold” for “with”, “22.9” for “20.0”

[2] = Temperature dependent X-ray powder diffraction, heating of form II; format: physicochemical
Method: Temperature dependent X-ray powder diffraction (TDXD) was carried out with a Bruker AXS D8 θ-θ powder diffractometer with parafocusing Bragg-Brentano geometry using CuKα radiation (λ=1.5418 Å, U=34 kV, I=20 mA). The sample was placed on a Pt/Rh ribbon in a MRI high-temperature oven-camera and VPSlits were used to fix the constant irradiated length (20 mm). Data were scanned with an ultrafast detector LynxEye over the angular range 3-38° (2θ) with a step size of 0.0196° (2θ) and a counting time of 58.6 s step^−1. The heating and cooling process was controlled by Eurotherm 2404.
The sample of form II lacosamide (50 mg) was placed on a Pt/Rh ribbon in a MRI high-temperature oven-camera, and heated at rate of 10° C./min up to 100° C. The heating and cooling process was controlled by Eurotherm 2404.

SMILES	crystal form determined using XRPD ([1]; suspension in ethyl acetate and water (239 ml/1 ml), after 2 hours at 40° C.)	crystal form determined using XRPD ([1]; suspension in ethyl acetate and water (239 ml/1 ml), sample taken immediately when temperature reached 40° C.)	crystal form determined using XRPD ([1]; suspension in ethyl acetate, after 2 hours at 40° C.)	crystal form determined using XRPD ([1]; suspension in ethyl acetate, after 4 hours at 40° C.)	crystal form determined using XRPD ([1]; suspension in ethyl acetate, sample taken immediately when temperature reached 40° C.)	temperature of transformation of form II to form III ([2]; heated at 10° C./min up to 100° C.)	reversibility of transformation of form II to form III ([2]; sample cooled back to room temperature)
COC[C@@H](NC(C)=O)C(=O)NCc1ccccc1 [Lacosamide, (R)-N-benzyl-2-acetamido-3-methoxypropionamide]	form I	mixture of form I and form II	mixture of form I and form II	form I	form II		
COC[C@@H](NC(C)=O)C(=O)NCc1ccccc1 [form II lacosamide, (R)-N-benzyl-2-acetamido-3-methoxypropionamide]						around 80 °C	completely reversible
